Measurements as given in the NIST ThermoML archive (doi:10.1016/j.jct.2013.02.022).

Columns and labels:
[1] = xn = mol fraction of the nth substance listed; conditions: 101 kPa, Liquid, Vibrating tube method
[2] = refractive index (Na D-line) (dimensionless); xn = mol fraction of the nth substance listed; conditions: 101 kPa, Liquid, Standard Abbe refractometry

CCCC(=O)[O-].C[NH2+]CCO [N-methyl-2-hydroxyethylammonium butanoate] + COC(C)=O
Conditions	mass density, [1] [kg/m3]	refractive index, [2]
288.14 K, x2 = 0.7912	977.2	–
288.15 K, x2 = 0	1046	1.4579
288.15 K, x2 = 0.0646	1040	1.4558
288.15 K, x2 = 0.1097	1036.1	1.4556
288.15 K, x2 = 0.2074	1027.3	1.4509
288.15 K, x2 = 0.3079	1021.07	1.4449
288.15 K, x2 = 0.3983	1015.6	1.4399
288.15 K, x2 = 0.4973	1011.5	1.4327
288.15 K, x2 = 0.5928	1003	1.4232
288.15 K, x2 = 0.6898	991.4	1.413
288.15 K, x2 = 0.7912	–	1.3996
288.15 K, x2 = 0.8979	–	1.3833
288.15 K, x2 = 0.898	959.7	–
288.15 K, x2 = 0.9483	–	1.3746
288.16 K, x2 = 0.9483	950.1	–
293.14 K, x2 = 0.0646	1036.4	–
293.14 K, x2 = 0.1097	1032.5	–
293.14 K, x2 = 0.9483	943.8	–
293.15 K, x2 = 0	1042.6	–
293.15 K, x2 = 0.2074	1024	–
293.15 K, x2 = 0.3079	1017.3	–
293.15 K, x2 = 0.3983	1011.4	–
293.15 K, x2 = 0.4973	1007.2	–
293.15 K, x2 = 0.5928	998.4	–
293.15 K, x2 = 0.6898	986.5	–
293.15 K, x2 = 0.7912	971.7	–
293.15 K, x2 = 0.898	953.8	–
298.14 K, x2 = 0.0646	1032.8	–
298.14 K, x2 = 0.3983	1007.1	–
298.14 K, x2 = 0.6898	981.5	–
298.14 K, x2 = 0.7912	966.2	–
298.14 K, x2 = 0.898	947.7	–
298.14 K, x2 = 0.9483	937.5	–
298.15 K, x2 = 0	1039.2	–
298.15 K, x2 = 0.1097	1028.9	–
298.15 K, x2 = 0.2074	1019.6	–
298.15 K, x2 = 0.3079	1013.2	–
298.15 K, x2 = 0.4973	1002.9	–
298.15 K, x2 = 0.5928	993.7	–
303.14 K, x2 = 0.0646	1029.1	–
303.14 K, x2 = 0.2074	1015.8	–
303.14 K, x2 = 0.3983	1002.8	–
303.14 K, x2 = 0.4973	998.4	–
303.14 K, x2 = 0.5928	989.1	–
303.14 K, x2 = 0.6898	976.4	–
303.14 K, x2 = 0.7912	960.7	–
303.14 K, x2 = 0.898	941.6	–
303.14 K, x2 = 0.9483	931.1	–
303.15 K, x2 = 0	1035.9	–
303.15 K, x2 = 0.1097	1025.2	–
303.15 K, x2 = 0.3079	1009	–
308.14 K, x2 = 0.0646	1025.6	–
308.14 K, x2 = 0.2074	1013.3	–
308.14 K, x2 = 0.3079	1004.8	–
308.14 K, x2 = 0.3983	998.5	–
308.14 K, x2 = 0.4973	992.6	–
308.14 K, x2 = 0.6898	971.3	–
308.14 K, x2 = 0.7912	955.1	–
308.14 K, x2 = 0.898	935.5	–
308.14 K, x2 = 0.9483	924.6	–
308.15 K, x2 = 0	1032.5	–
308.15 K, x2 = 0.1097	1021.6	–
308.15 K, x2 = 0.5928	984.3	–
313.14 K, x2 = 0.0646	1022	–
313.14 K, x2 = 0.1097	1018	–
313.14 K, x2 = 0.2074	1009.2	–
313.14 K, x2 = 0.3079	1000.6	–
313.14 K, x2 = 0.3983	994.2	–
313.14 K, x2 = 0.4973	988.8	–
313.14 K, x2 = 0.6898	966.1	–
313.14 K, x2 = 0.7912	949.5	–
313.14 K, x2 = 0.898	929.3	–
313.14 K, x2 = 0.9483	918.1	–
313.15 K, x2 = 0.5928	979.6	–
313.16 K, x2 = 0	1029.1	–
318.14 K, x2 = 0.1097	1014.3	–
318.14 K, x2 = 0.3079	996.3	–
318.14 K, x2 = 0.5928	974.8	–
318.14 K, x2 = 0.898	923	–
318.14 K, x2 = 0.9483	911.5	–
318.15 K, x2 = 0.0646	1018.3	–
318.15 K, x2 = 0.2074	1006.1	–
318.15 K, x2 = 0.3983	989.8	–
318.15 K, x2 = 0.4973	983.8	–
318.15 K, x2 = 0.6898	961	–
318.15 K, x2 = 0.7912	943.8	–
318.16 K, x2 = 0	1025.7	–
323.14 K, x2 = 0.1097	1010.6	–
323.14 K, x2 = 0.5928	970	–
323.15 K, x2 = 0.0646	1014.6	–
323.15 K, x2 = 0.2074	1001.4	–
323.15 K, x2 = 0.3079	992.33	–
323.15 K, x2 = 0.3983	985.3	–
323.15 K, x2 = 0.4973	979.2	–
323.15 K, x2 = 0.6898	955.7	–
323.15 K, x2 = 0.7912	938.1	–
323.15 K, x2 = 0.898	916.7	–
323.15 K, x2 = 0.9483	904.9	–
323.16 K, x2 = 0	1022.3	–

CCCC(=O)[O-].C[NH2+]CCO [N-methyl-2-hydroxyethylammonium butanoate] + CCOC(C)=O
Conditions	mass density, [1] [kg/m3]	refractive index, [2]
303.15 K, x2 = 0	1035.87	1.4534
303.15 K, x2 = 0.0454	–	1.4533
303.15 K, x2 = 0.0956	–	1.4511
303.15 K, x2 = 0.199	1013.58	1.4472
303.15 K, x2 = 0.2901	1004.61	1.4411
303.15 K, x2 = 0.412	–	1.4324
303.15 K, x2 = 0.507	981.19	1.4246
303.15 K, x2 = 0.6018	–	1.4161
303.15 K, x2 = 0.7039	950.35	1.4055
303.15 K, x2 = 0.8031	931.53	1.3949
303.15 K, x2 = 0.8998	911.57	1.3812
303.15 K, x2 = 0.9497	–	1.3746
303.16 K, x2 = 0.0454	1026.24	–
303.16 K, x2 = 0.0956	1022.32	–
303.16 K, x2 = 0.412	992.58	–
303.16 K, x2 = 0.6018	967.06	–
303.16 K, x2 = 0.9497	900.62	–
308.15 K, x2 = 0	1032.53	–
308.15 K, x2 = 0.0956	1018.71	–
308.15 K, x2 = 0.199	1009.85	–
308.15 K, x2 = 0.2901	1000.57	–
308.15 K, x2 = 0.412	987.98	–
308.15 K, x2 = 0.507	976.57	–
308.15 K, x2 = 0.6018	962.31	–
308.15 K, x2 = 0.7039	945.26	–
308.15 K, x2 = 0.8031	926.08	–
308.15 K, x2 = 0.8998	905.73	–
308.16 K, x2 = 0.0454	1022.67	–
308.16 K, x2 = 0.9497	894.58	–
313.15 K, x2 = 0.0454	1019.09	–
313.15 K, x2 = 0.0956	1015.1	–
313.15 K, x2 = 0.6018	957.53	–
313.16 K, x2 = 0	1029.14	–
313.16 K, x2 = 0.199	1006.08	–
313.16 K, x2 = 0.2901	996.56	–
313.16 K, x2 = 0.412	983.25	–
313.16 K, x2 = 0.507	971.82	–
313.16 K, x2 = 0.7039	940.11	–
313.16 K, x2 = 0.8031	920.58	–
313.16 K, x2 = 0.8998	899.84	–
313.16 K, x2 = 0.9497	888.5	–
318.15 K, x2 = 0.9497	882.16	–
318.16 K, x2 = 0	1025.72	–
318.16 K, x2 = 0.0454	1015.66	–
318.16 K, x2 = 0.0956	1011.66	–
318.16 K, x2 = 0.199	1002.32	–
318.16 K, x2 = 0.2901	992.61	–
318.16 K, x2 = 0.412	978.49	–
318.16 K, x2 = 0.507	967.05	–
318.16 K, x2 = 0.6018	952.68	–
318.16 K, x2 = 0.7039	934.92	–
318.16 K, x2 = 0.8031	915.03	–
318.16 K, x2 = 0.8998	893.91	–
323.14 K, x2 = 0.0454	1012.2	–
323.14 K, x2 = 0.0956	1007.98	–
323.14 K, x2 = 0.199	998.56	–
323.14 K, x2 = 0.2901	988.83	–
323.14 K, x2 = 0.412	974.67	–
323.14 K, x2 = 0.507	962.75	–
323.14 K, x2 = 0.7039	929.55	–
323.14 K, x2 = 0.8031	909.33	–
323.14 K, x2 = 0.8998	887.92	–
323.15 K, x2 = 0.6018	947.5	–
323.15 K, x2 = 0.9497	876.1	–
323.16 K, x2 = 0	1022.26	–
